Data on two compounds can be found in patent US9901608B2, “Composition and method for enhancing alcohol metabolism” (GANGNEUNG-WONJU NATIONAL UNIVERSITY INDUSTRY ACADEMY …, priority 2014, dated 2018).

Data set [1] relates to ALDH (acetaldehyde dehydrogenase) gene. Nature of the data set: qPCR of ALDH mRNA in HepG2 cells. The class given is cell-based, human. The settings on record: HepG2, 10 μM, 1 and 2 h. As to the method: To evaluate the role of the GFM in ethanol metabolism, the genes of primary enzymes (ADH, ALDH, CYP2E1, and catalase) involved in eliminating ethanol from the body were quantified by real-time qPCR. Particularly, total RNA extracts from HepG2 cells (1×10^6 cells/well) treated with ethanol (0.2 mM) or GFM (10 μg/ml) were prepared using the Trizol method (Invitrogen) after 1, 2, 4 and 24 h after the treatment. And then, cDNA was synthesized from RNA by reverse transcription of 1 μg of total RNA using the Improm-II reverse transcription system (Promega) and oligo dT primers in a total volume of 20 μL. PCR amplification was performed using the primers described in Table 1 (Bioneer, Deajeon, Republic of Korea). Quantitative real-time PCR reactions were run on a Rotor-Gene 6000 (Corbett Research, Sydney, Australia) using SYBR Green PCR Master Mix (Qiagen, Valencia, Calif., USA) in 20 μL reaction mixtures. Each real-time-PCR master mix contained 10 μL 2× enzyme mastermix, 7.0 μL RNase free water, 1 μL of each primer (10 μM each) and 1 μL diluted template. […] Relative sample expression levels were calculated using Rotor-Gene 6000 Series Software 1.7 and were expressed relative to glyceraldehyde 3-phosphate dehydrogenase and corrected for between-run variability. Data for the experimental samples were expressed as a percentage of the internal control gene. […]
Background: Quantitative PCR measures a nucleic acid by following its amplification.

The nature of data set [2]: Hepatoprotective effect: serum GOT and GPT after oral ethanol. Particulars: 20% ethanol only, 300 μl oral, 8 h after ethanol.
Description: (§1) GFM suspended in saline solution was orally administrated (25 mg/kg) and CTD dried and then resolved in saline solution (50 mg/kg) was used as positive control (50 mg/kg). Before the administration, the experimental animals fasted 4 hours, and after the administration additional 1 hour of fasting was performed.
Data set [3] is described as follows: Side effects: body weights, organ masses, symptoms after administration. Particulars: ethanol only (300 μl of 20% ethanol oral), 8 h.
Description: as §1
The conditions of data set [4]: male, BALB/c, mouse, in vivo, 1 h.
Description: Male BALB/c mice (7-week old) were purchased from Samtaco (Osan, Kyunggi-do, Republic of Korea), and were adapted to laboratory conditions (temperature: 20±2° C., relative humidity: 50%, light/dark cycle: 12 h) for 1 week. […] Perfused liver tissues from the treated mice were prepared using the Trizol method (Invitrogen, USA).
The enzymatic analysis was conducted with ALDH according to the method of Lundquist (Lundquist F. et al., Biochem. J., 68:172-177, 1958; Lundquist F. et al., In: Bergmeier H U (ed) Methods of enzymatic analysis. 2nd ed. Weinheim/New York and London, 230-257, 1974). This enzymatic test for alcohol utilizes the coenzyme NAD and ADH. The amount of NADH formed is stoichiometric to the amount of acetaldehyde. NADH was determined by light absorbance at 365 nm.
Data set [5] deals with HepG2 cells. The experiment in a line: Cytotoxicity assay by LDH release. The data set is classed as cell-based, human. Particulars: HepG2, ethanol 200 mM. Here is the method: HepG2 human hepatoma cells (Korean Cell Line Bank, Seoul, Republic of Korea) were grown in RPMI1640 complete medium (Hyclone, Logan, Utah, USA) supplemented with 10% fetal bovine serum, 100 U/mL penicillin, and 100 μg/mL streptomycin (Invitrogen, Carlsbad, Calif., USA). The cultures were maintained under 5% CO2 at 37° C. in tissue culture flasks. For all experiments, cells were grown to >90% confluency and subjected to no more than 20 cell passages. The medium was changed every 2-3 days. Subconfluent cells were harvested and seeded at a density of 5×10^5 cells or 1.5×10^6 cells in poly-L-lysine-coated 35 mm or 60 mm culture plates. […]
Cytotoxicity of the GFM was investigated by measuring lactate dehydrogenase (LDH) release from HepG2 cells. That is, the cytotoxicity induced by the GFM in HepG2 cells was quantified by measuring LDH release at varying ranges of concentration (1-1,000 μg/mL). Cytotoxicity in experimental samples was determined as % LDH release, and the data from triplicate cultures were expressed as the mean±standard deviation. Concentration-dependent cytotoxicity determined as % LDH release was compared with non-treated control cells (Ctrl) and H2O2 (1 mM)-treated control was used as a positive control. […] Formazan was quantified spectrophotometrically by measuring its absorbance at 490 nm (Spectra Max 340, Molecular Devices, Sunnyvale, Calif., USA).
In general terms: LDH leaks from cells whose membrane has failed.

Regarding `CCCCC/C=C\C/C=C\CCCCCCCC(=O)O` [LA, linoleic acid], the “ALDH mRNA expression induced by fatty acid” value in data set [1] is recorded as “effectiveness of GFM might be mainly from LA”.

Take `CCO` [ethanol]: in data set [2], the “serum GOT” value came out at 259.00 ± 17.44 IU/L and the “serum GPT” value is reported as 150.50 ± 10.13 IU/L. In data set [3], this compound returned a Body weight of 21.00 ± 0.57 g, a Liver mass of 1.31 ± 0.11 g and a Spleen mass of 0.09 ± 0.01 g. The “serum ethanol detected by GC” value in data set [4] was 12.2%. Besides, the “cytotoxicity (% LDH release)” value in data set [5] was “not cytotoxic”.
